Laboratory results taken from publication PMC10160475, “Biological evaluation and in silico studies of novel compounds as potent TAAR1 agonists that could be used in schizophrenia treatment” (Frontiers in Pharmacology, 2023).
Like-named read-outs stand apart in the source and are kept apart here.

What was measured:
human 5-HT1A = molecular target: T1, human 5-HT1A (Homo sapiens, UniProt P08908); test: Calcium (FLIPR) assay, agonist activity at human 5-HT1A; assay type: cell-based
T1 construct: expressed in transfected cells; host or cells: Gα15-CHO-Clone cells
T1 sequence (P08908 1-422): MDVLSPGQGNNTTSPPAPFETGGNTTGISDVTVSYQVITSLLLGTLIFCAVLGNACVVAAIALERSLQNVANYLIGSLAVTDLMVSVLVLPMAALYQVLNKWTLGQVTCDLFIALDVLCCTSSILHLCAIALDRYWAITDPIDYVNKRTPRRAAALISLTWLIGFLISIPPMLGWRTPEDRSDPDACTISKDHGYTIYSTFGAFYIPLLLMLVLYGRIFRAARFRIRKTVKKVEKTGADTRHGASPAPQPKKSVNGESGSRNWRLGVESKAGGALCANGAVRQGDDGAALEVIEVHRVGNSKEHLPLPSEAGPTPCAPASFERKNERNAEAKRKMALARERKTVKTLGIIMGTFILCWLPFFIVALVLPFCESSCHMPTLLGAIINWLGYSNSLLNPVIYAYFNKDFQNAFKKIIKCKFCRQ
Protocol: With respect to 5-HT1A, recombinant Gα15-CHO-Clone cells expressing human 5-HT1A were used in this test. Cells were cultured with MEM supplemented with 10% FBS, penicillin (100 U/ml), streptomycin (100 μg/ml), and hygromycin B (600 μg/ml) and were seeded in 384-well microplates. Cells were stimulated with different concentrations of compounds for 2 h at 37°C, and the agonistic effect was determined using the FLIPR Calcium Assay Kit. Serotonin was used as the MAX control. Percentage activity was calculated using the following equation: Activity %=mean RLUtest sample−mean RLUvehicle control/mean RLUMAX control−mean RLUvehicle control×100%.

human 5-HT2A = molecular target: T2, human 5-HT2A (Homo sapiens, UniProt P28223); test: Calcium (FLIPR) assay, agonist activity at human 5-HT2A; assay type: cell-based
T2 construct: expressed in transfected cells; host or cells: Flp-In-CHO cell line
T2 sequence (P28223 whole entry): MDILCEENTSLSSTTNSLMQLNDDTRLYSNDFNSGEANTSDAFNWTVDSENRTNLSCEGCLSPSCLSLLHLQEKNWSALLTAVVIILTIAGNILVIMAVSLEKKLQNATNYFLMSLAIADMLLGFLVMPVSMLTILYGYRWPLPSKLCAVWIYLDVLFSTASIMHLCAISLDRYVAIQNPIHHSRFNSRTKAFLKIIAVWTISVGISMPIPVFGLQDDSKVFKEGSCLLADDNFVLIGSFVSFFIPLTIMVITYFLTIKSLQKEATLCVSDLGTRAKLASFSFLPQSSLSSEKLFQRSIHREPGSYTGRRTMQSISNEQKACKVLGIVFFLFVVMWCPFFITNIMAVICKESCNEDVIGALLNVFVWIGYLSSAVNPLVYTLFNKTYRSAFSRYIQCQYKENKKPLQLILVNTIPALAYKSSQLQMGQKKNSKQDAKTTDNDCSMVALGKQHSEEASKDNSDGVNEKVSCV
Protocol: With regard to 5-HT2A, the agonistic or inhibitory activity of 5-HT2A of compounds was determined using the Flp-In™-CHO cell line expressing human 5-HT2A. Cells were cultured with Ham’s F-12K (Kaighn’s) medium supplemented with 10% FBS, penicillin (100 U/ml), streptomycin (100 μg/ml), and hygromycin B (600 μg/ml) at 37°C in an atmosphere of 95% air and 5% CO2. Cells were stimulated with different concentrations of compounds for 2 h at 37°C after seeding in 384-well microplates. For the determination of agonistic activity, serotonin was used as the MAX control. In the determination of inhibitory activity, ketanserin was used as the MAX control.

[1] = Pharmacokinetics study in rats; assay type: in vivo, Sprague–Dawley rats
Protocol: Compound 50B was dissolved in physiologic (0.9%) saline. Male and female rats were fasted overnight before dosing to avoid the possible effects of food. Compound 50B was administered via intragastric (5 mg/kg) and intravenous (2 mg/kg) routes to female and male rats. Approximately 200 μL of whole blood was collected into heparin-coated tubes at 0.083, 0.25, 0.5, 1, 2, 3, 4, 6, 8, 12, and 24 h after dosing. Plasma was collected immediately by centrifugation (8,000 g, 5 min, room temperature). Blood was placed in a heparinized Eppendorf™ tube. Plasma was centrifuged, and the concentration of compounds in the sample was determined by LC-MS/MS after pre-treatment. Drug-concentration data were processed in a […] using WinNonlin™ 6.3 (Pharsight, Mountain View, CA, United States).

[2] = Tissue distribution (brain and plasma) in rats; assay type: in vivo, Sprague–Dawley rats
Protocol: Rats (three males and three females) were sacrificed at 0.25, 1, or 6 h after administration of 50B (5 mg/kg, i.g.). Blood and brain tissues were harvested. The concentration of compounds in all tissue and blood samples was determined by LC-MS/MS. Drug concentration data were processed in a non-atrioventricular model using WinNonlin™ 6.3.

[3] = Permeability and transporter substrate evaluation in Caco-2 cells; assay type: in vitro ADME; settings: human
Protocol: Cells were seeded into 96-well cell plates and cultured continuously for 24 days for subsequent experiments. Compounds were administered with or without verapamil (2 µM). […] The […] content in each sample was measured by liquid chromatography–tandem mass spectrometry (LC-MS/MS). The apparent permeability coefficient and the efflux ratio were calculated.

[4] = Liver microsomal stability, monkey
[5] = Sprague-Dawley, rat, plasma, iv, male rats, 2 mg/kg
[6] = Sprague-Dawley, rat, plasma, po, male rats, 5 mg/kg, i.g.
[7] = male, Sprague-Dawley, rat, plasma, po, 5 mg/kg, i.g.

**Q.** What does the source list for `c1csc([C@@H]2CNCCO2)c1` [Compound 50B]?
**A.** EC50 (human 5-HT1A): 99.8 µM; Emax (human 5-HT1A; serotonin as MAX control, up to 100 μM, read-out: 5-HT1A agonism Emax): 50.3%; EC50 (human 5-HT2A): 61.2 µM; Emax (human 5-HT2A; serotonin as MAX control, up to 100 μM, read-out: 5-HT2A agonism Emax): 54.9%; Cmax [1, 5]: 6.8 µM; MRT last [1, 5]: 1.46 ± 0.231 h; Cmax [1, 6]: 4.38 µM; MRT last [1, 6]: 3.03 ± 0.625 h; CL/F ([1]; Sprague-Dawley, rat, plasma, po, male rats, 5 mg/kg, i.g., read-out: CL/F (converted)): 26 mL/min/kg; Vd/F ([1]; Sprague-Dawley, rat, plasma, po, male rats, 5 mg/kg, i.g., read-out: Vz/F): 2.86 ± 0.104 L/kg; CL/F ([1]; male rats, 2 mg/kg, i.v.): 22.2 ± 3.52 mL/min/kg; Vz/F ([1]; male rats, 2 mg/kg, i.v.): 2.48 ± 0.485 L/kg; AUC(0-t) ([1]; male rats, 5 mg/kg, i.g.): 18,929 ± 1774 h* nM; T1/2 ([1]; male rats, 5 mg/kg, i.g.): 1.28 ± 0.140 h; half-life ([1]; male, Sprague-Dawley, rat, plasma, iv, 2 mg/kg): 1.31 ± 0.313 h; AUC(0-t) ([1]; male, Sprague-Dawley, rat, plasma, iv, 2 mg/kg, i.v., read-out: AUC0-t): 8.98 µM·h; bioavailability ([1]; male, Sprague-Dawley, rat, plasma, oral, 5 mg/kg, i.g. vs 2 mg/kg i.v., read-out: F (oral bioavailability)): ~84.3%; Tmax [1, 7]: ~0.833 h; half-life [1, 7]: ~1.28 h; AUC(0-t) ([1]; male, Sprague-Dawley, rat, plasma, po, 5 mg/kg, i.g., read-out: AUC0-t): ~18.9 µM·h; Concentration ratio brain to plasma compared with SEP-856 ([2]; rats, 5 mg/kg i.g.): increased significantly compared with that of SEP-856; Plasma concentration compared with SEP-856 ([2]; rats, 5 mg/kg i.g., same time point): lower than that of SEP-856; Detection in rat brain ([2]; single intragastric administration, 5 mg/kg, 0.25 to 6 h): detected in rat brains from 0.25 to 6 h; efflux ratio at 120 min ([3]; Caco-2): 0.781; Papp A→B at 120 min ([3]; Caco-2, 120 min incubation): 35.2 ×10⁻⁶ cm/s; Papp B→A at 120 min ([3]; Caco-2, 120 min incubation): 27.5 ×10⁻⁶ cm/s; Remaining (T = 60 min) ([4]; Monkey liver microsomes, 60 min): 85.1%; CLint scaled ([4]; monkey, liver microsomes): < 13.5 mL/min/kg; half-life ([4]; monkey, microsomes): > 3.1 h
